The test system of one series is 661W cells. Briefly: tBHP-induced death of 661W cone cells. The class given is cell-based, mouse. To be noted: different doses. On the procedure: A cone cell specific line 661W was derived from a mouse retinal tumor. Methods useful in the present studies of 661W cells have been described previously. See generally, Gearóid Tuohy, Sophia Millington-Ward, Paul F. Kenna, Peter Humphries and G. Jane Farrar, Sensitivity of Photoreceptor-Derived Cell Line (661W) to Baculoviral p35, Z-VAD.FMK, and Fas-Associated Death Domain, Investigative Ophthalmology and Visual Science. 2002; 43:3583-3589. These cells were cultured to test the effects of the aromatic-cationic peptides of the invention in preventing or reducing oxidative damage in the cone cells (FIG. 27). First, it was shown that tBHP affected survival of 661W cells (FIG. 27A). Different doses of tBHP were administered to the cells for 3 h. Next, it was shown that different doses of D-Arg-2′,6′-Dmt-Lys-Phe-NH2 reduced tBHP-induced 661W cell death (FIG. 27B).

In series [1] the test system is mouse model of retina degeneration. Kind of series: Mouse model of retina degeneration (ONL thickness, PNA cone staining). The class given is in vivo. The conditions noted are these: compared to untreated mice. From the text: CNV is induced in the eye with laser burns. (see Example 6). Mouse models of retinal degeneration have been investigated for many years in the hope of understanding the causes of photoreceptor cell death. Naturally occurring mouse mutants that manifest degeneration of photoreceptors in the retina with preservation of all other retinal cell types have been found: retinal degeneration (formerly rd, identical with rodless retina, r, now Pde6b rd1); Purkinje cell degeneration (pcd); nervous (nr); retinal degeneration slow (rds, now Prph Rd2); retinal degeneration 3 (rd3); motor neuron degeneration (mnd); retinal degeneration 4 (Rd4); retinal degeneration 5 (rd5); vitiligo (vir, now Mitf mi-vit); retinal degeneration 6 (rd6); retinal degeneration 7 (rd7); neuronal ceroid lipofuscinosis (nclf); retinal degeneration 8 (rd8); retinal degeneration 9 (Rd9); retinal degeneration 10 (rd10); and cone photoreceptor function loss (cpfl1).
FIG. 28 is a series of micrographs showing the thickness of the retinal outer nuclear layer (ONL) in a mouse model of retina degeneration in control and D-Arg-2′,6′-Dmt-Lys-Phe-NH2-treated mice.

Series [2] relates to human retinal epithelial cells (HREC). Briefly: Intracellular ROS in HRECs exposed to 30 mM glucose (dihydroethidium). The format is cell-based. To be noted: 100 nM, 24 h and 48 h. As for the experimental part:
FIGS. 2A-2F is a series of micrographs showing co-treatment with D-Arg-2′,6′-Dmt-Lys-Phe-NH2 (SS-31) reduced intracellular reactive oxygen species (ROS) in HRECs exposed to 30 mM glucose for 24 h and 48 h. Intracellular ROS was measured using dihydroethidium. 2A, 2D normal culture media; 2B, 2E 30 mM glucose; and 2C, 2F 30 mM glucose+D-Arg-2′,6′-Dmt-Lys-Phe-NH2 (SS-31) (100 nM) at 24 and 48 h, respectively.
The survival of HRECs in high glucose co-treated with D-Arg-2′,6′-Dmt-Lys-Phe-NH2 was tested at 24 h and 48 h.

In a further series the test system is iHTM cells. Briefly: ROS production, sustained oxidative injury by H2O2, iHTM cells. The conditions noted are these: then 200 μM H2O2 24 h. The class given is cell-based, human. As for the experimental part:
The effects of D-Arg-2′,6′-Dmt-Lys-Phe-NH2 on sustained oxidative injury of GTM and HTM cells was examined. Cells were pre-treated with 10^−6, 10^−7, 10^−8M of D-Arg-2′,6′-Dmt-Lys-Phe-NH2 for 1 h, and then incubated with 200 μM H2O2 for 24 h to investigate the protective effect of D-Arg-2′,6′-Dmt-Lys-Phe-NH2 in sustained oxidative stress.

The test system of series [3] is trabecular meshwork cells from non-diseased individuals (HTM). Briefly: LDH cytotoxicity assay, HTM cells. The format is cell-based, human. From the text: In this Example, the effects of the aromatic-cationic peptides of the invention were compared between trabecular meshwork cells from POAG patients (GTM) and trabecular meshwork cells from non-diseased individuals (HTM). Methods useful in the studies of the present invention have been described. See generally, He Y, Ge J, Tombran-Tink J., Mitochondrial defects and dysfunction in calcium regulation in glaucomatous trabecular meshwork cells. Invest Ophthalmol Vis Sci. 2008, 49(11):4912-22; He Y, Leung K W, Zhang Y H, Duan S, Zhong X F, Jiang R Z, Peng Z, Tombran-Tink J, Ge J. Mitochondrial complex I defect induces ROS release and degeneration in trabecular meshwork cells of POAG patients: protection by antioxidants. Invest Ophthalmol Vis Sci. 2008, 49(4):1447-58. […]
To assess whether D-Arg-2′,6′-Dmt-Lys-Phe-NH2 had cytotoxic effects of HTM or GTM cells, various concentrations of D-Arg-2′,6′-Dmt-Lys-Phe-NH2 were administered to cells and the cytotoxicity was measured using an LDH assay. […] The assay quantitatively measures the stable, cytosolic, lactate dehydrogenase (LDH) enzyme, which is released from damaged cells. The released LDH is measured with a coupled enzymatic reaction that results in the conversion of a tetrazolium salt (iodonitrotetrazolium (INT)) into a red color formazan by diaphorase. […] The LDH activity is determined as NADH oxidation or INT reduction over a defined time period.

In the case of D-Arg-2′,6′-Dmt-Lys-Phe-NH2, in the series on 661W cells, the “tBHP-induced 661W cell death” value is given as “reduced”. In addition, in series [1], the “cone cell density (PNA-stained retinal flat mounts)” value is on record as “greater”. Besides, the “rows of cells in the retinal outer nuclear layer (ONL)” value in series [1] was “retained a greater number of rows of cells”. Also, the “production of ROS” value in series [2] was “reduced”. Moreover, the results for the “ROS Production” value with iHTM cells (0.01 μM pre-treatment 1 h), with iHTM cells (0.1 μM pre-treatment 1 h) and in the series with iHTM cells (1 μM pre-treatment 1 h) were 114.30 ± 3.89 %, 82.89 ± 3.70 % and 36.91 ± 1.47 %, respectively. Besides, the cytotoxicity result in series [3] (10^−4M) is listed as “no cytotoxicity”. In addition, the “viability (LDH assay)” value in series [3] (various concentrations) is recorded as “does not affect the viability”.

These data come from patent US20180296630A1, “METHODS AND COMPOSITIONS FOR PREVENTING OR TREATING OPHTHALMIC CONDITIONS” (Stealth BioTherapeutics Corp, priority 2012, published 2018).
